Results on 24 molecules are retold here after patent publication US9738652B2, “Spiro urea compounds as RSV antiviral compounds” (priority 2014, dated 2017).

Data set [1] can be described thus: Cytotoxicity in HeLa cells (ATPlite, CC50) used for selectivity index. Particulars: human. (In general: In ATP-based viability assays light output follows the ATP content of the culture.)
Procedure: The wells contain 0.05% DMSO per volume. Cells were incubated at 37° C. in a 5% CO2 atmosphere. […] In parallel, compounds were incubated for three days in a set of white 384-well microtiter plates (Corning) and the cytotoxicity of compounds in HeLa cells was determined by measuring the ATP content of the cells using the ATPlite kit (Perkin Elmer, Zaventem, Belgium) according to the manufacturer's instructions. The CC50 was defined as the 50% concentration for cytotoxicity.
For a further data set, the system named is rgRSV224 virus. Put plainly: Antiviral activity: rgRSV224 (GFP) replication in HeLa cells. Particulars: human respiratory syncytial virus, 72 h, read-out: RSV HELA pEC50 (converted).

SMILES strings stand for the structures.

Procedure for rgRSV224 virus: Black 384-well clear-bottom microtiter plates (Corning, Amsterdam, The Netherlands) were filled via acoustic drop ejection using the echo liquid handler (Labcyte, Sunnyvale, Calif.). 200 nL of compound stock solutions (100% DMSO) were transferred to the assay plates. 9 serial 4-fold dilutions of compound were made, creating per quadrant the same compound concentration. The assay was initiated by adding 10 μL of culture medium to each well (RPMI medium without phenol red, 10% FBS-heat inactivated, 0.04% gentamycin (50 mg/mL). All addition steps are done by using a multidrop dispenser (Thermo Scientific, Erembodegem, Belgium). Next, rgRSV224 virus (MOI=1) diluted in culture medium was added to the plates. rgRSV224 virus is an engineered virus that includes an additional GFP gene (Hallak L K, Spillmann D, Collins P L, Peeples M E. Glycosaminoglycan sulfation requirements for respiratory syncytial virus infection; Journal of virology (2000), 74(22), 10508-13) and was in-licensed from the NIH (Bethesda, Md., USA). Finally, 20 μL of a HeLa cell suspension (3,000 cells/well) were plated. Medium, virus- and mock-infected controls were included in each test. The wells contain 0.05% DMSO per volume. Cells were incubated at 37° C. in a 5% CO2 atmosphere. Three days post-virus exposure, viral replication was quantified by measuring GFP expression in the cells by an in house developed MSM laser microscope (Tibotec, Beerse, Belgium). The EC50 was defined as the 50% inhibitory concentration for GFP expression. In parallel, compounds were incubated for three days in a set of white 384-well microtiter plates (Corning) and the cytotoxicity of compounds in HeLa cells was determined by measuring the ATP content of the cells using the ATPlite kit (Perkin Elmer, Zaventem, Belgium) according to the manufacturer's instructions. The CC50 was defined as the 50% concentration for cytotoxicity.

`CC(C)NC(=O)N1CC2(C1)C(=O)N(Cc1cc3cc(Cl)ccc3n1CCCS(C)(=O)=O)c1ccccc12` [Co. No. 1, 1′-[[5-chloro-1-(3-methylsulfonylpropyl)indol-2-yl]methyl]-N-isopropyl-2′-oxo-spiro[azetidine-3,3′-indoline]-1-carboxamide]: the selectivity ratio at 3 days in data set [1] was 357000. Moreover, the EC50 in the data set with rgRSV224 virus is 89.1 pM.
For `CC(C)(C)OC(=O)N1CCC(NC(=O)N2CC3(C2)C(=O)N(Cc2cc4cc(Cl)ccc4n2CCCC#N)c2ccccc23)CC1` [Co. No. 2, tert-butyl 4-[[1′-[[5-chloro-1-(3-cyanopropyl)indol-2-yl]methyl]-2′-oxo-spiro[azetidine-3,3′-indoline]-1-carbonyl]amino]piperidine-1-carboxylate], the selectivity ratio at 3 days in data set [1] was greater than 50000. Also, the EC50 in the data set with rgRSV224 virus is 2000 pM.
As to `N#CCCCn1c(CN2C(=O)C3(CN(C(=O)NC4CCNCC4)C3)c3ccccc32)cc2cc(Cl)ccc21` [Co. No. 3, 1′-[[5-chloro-1-(3-cyanopropyl)indol-2-yl]methyl]-2′-oxo-N-(4-piperidyl)spiro[azetidine-3,3′-indoline]-1-carboxamide], the selectivity ratio at 3 days in data set [1] amounted to 158000. Moreover, the EC50 in the data set on rgRSV224 virus is 631 pM.
In the same order, the values of `N#CCCCn1c(CN2C(=O)C3(CN(C(=O)NC4CCN(CC(F)(F)F)CC4)C3)c3ccccc32)cc2cc(Cl)ccc21` [Co. No. 4, 1′-[[5-chloro-1-(3-cyanopropyl)indol-2-yl]methyl]-2′-oxo-N-[1-(2,2,2-trifluoroethyl)-4-piperidyl]spiro[azetidine-3,3′-indoline]-1-carboxamide] are 100000 and 1000 pM.
In the same order, the values of `CN1CCC(NC(=O)N2CC3(C2)C(=O)N(Cc2cc4cc(Cl)ccc4n2CCCC#N)c2ccccc23)CC1` [Co. No. 5, 1′-[[5-chloro-1-(3-cyanopropyl)indol-2-yl]methyl]-N-(1-methyl-4-piperidyl)-2′-oxo-spiro[azetidine-3,3′-indoline]-1-carboxamide] are 10000 and 3160 pM.
In the same order, the values of `N#CCCCn1c(CN2C(=O)C3(CN(C(=O)NC4CCOCC4)C3)c3ccccc32)cc2cc(Cl)ccc21` [Co. No. 6, 1′-[[5-chloro-1-(3-cyanopropyl)indol-2-yl]methyl]-2′-oxo-N-tetrahydropyran-4-yl-spiro[azetidine-3,3′-indoline]-1-carboxamide] are 100000 and 316 pM.
Turning to `N#CCCCn1c(CN2C(=O)C3(CN(C(=O)NC4CC(O)C4)C3)c3ccccc32)cc2cc(Cl)ccc21` (stereo not drawn) [Co. No. 7, 1′-[[5-chloro-1-(3-cyanopropyl)indol-2-yl]methyl]-N-(3-hydroxycyclobutyl)-2′-oxo-spiro[azetidine-3,3′-indoline]-1-carboxamide], the selectivity ratio at 3 days in data set [1] turned out to be 103000. Further, the EC50 in the data set with rgRSV224 virus is 407 pM.
In the case of `N#CCCCn1c(CN2C(=O)C3(CN(C(=O)N[C@H]4C[C@@H](O)C4)C3)c3ccccc32)cc2cc(Cl)ccc21` [Co. No. 8, 1′-[[5-chloro-1-(3-cyanopropyl)indol-2-yl]methyl]-N-(cis-3-hydroxycyclobutyl)-2′-oxo-spiro[azetidine-3,3′-indoline]-1-carboxamide], the selectivity ratio at 3 days in data set [1] is greater than 232000. Further, the EC50 in the data set with rgRSV224 virus was less than 153 pM.
In the same order, the values of `N#CCCCn1c(CN2C(=O)C3(CN(C(=O)N[C@H]4C[C@H](O)C4)C3)c3ccccc32)cc2cc(Cl)ccc21` [Co. No. 9, 1′-[[5-chloro-1-(3-cyanopropyl)indol-2-yl]methyl]-N-(trans-3-hydroxycyclobutyl)-2′-oxo-spiro[azetidine-3,3′-indoline]-1-carboxamide] are greater than 254000 and less than 153 pM.
Regarding `CS(=O)(=O)CCCn1c(CN2C(=O)C3(CN(C(=O)N[C@H]4C[C@@H](O)C4)C3)c3ccccc32)cc2cc(Cl)ccc21` [Co. No. 10, 1′-[[5-chloro-1-(3-methylsulfonylpropyl)indol-2-yl]methyl]-N-(cis-3-hydroxycyclobutyl)-2′-oxo-spiro[azetidine-3,3′-indoline]-1-carboxamide], the selectivity ratio at 3 days in data set [1] is greater than 505000. Moreover, the EC50 in the data set on rgRSV224 virus was less than 170 pM.
Take `CS(=O)(=O)CCCn1c(CN2C(=O)C3(CN(C(=O)N[C@H]4C[C@H](O)C4)C3)c3ccccc32)cc2cc(Cl)ccc21` [Co. No. 11, 1′-[[5-chloro-1-(3-methylsulfonylpropyl)indol-2-yl]methyl]-N-(trans-3-hydroxycyclobutyl)-2′-oxo-spiro[azetidine-3,3′-indoline]-1-carboxamide]: the selectivity ratio at 3 days in data set [1] is 300000. The EC50 with rgRSV224 virus was 245 pM.
In the same order, the values of `CS(=O)(=O)CCCn1c(CN2C(=O)C3(CN(C(=O)NCC(F)(F)F)C3)c3ccccc32)cc2cc(Cl)ccc21` [Co. No. 12, 1′-[[5-chloro-1-(3-methylsulfonylpropyl)indol-2-yl]methyl]-2′-oxo-N-(2,2,2-trifluoroethyl)spiro[azetidine-3,3′-indoline]-1-carboxamide] are 86900 and 269 pM.
In the case of `CC(C)(CO)NC(=O)N1CC2(C1)C(=O)N(Cc1cc3cc(Cl)ccc3n1CCCS(C)(=O)=O)c1ccccc12` [Co. No. 13, 1′-[[5-chloro-1-(3-methylsulfonylpropyl)indol-2-yl]methyl]-N-(2-hydroxy-1,1-dimethyl-ethyl)-2′-oxo-spiro[azetidine-3,3′-indoline]-1-carboxamide], in data set [1], the selectivity ratio at 3 days came out at 43400. Moreover, in the data set with rgRSV224 virus, the EC50 was 1000 pM.
For `CC(CO)NC(=O)N1CC2(C1)C(=O)N(Cc1cc3cc(Cl)ccc3n1CCCS(C)(=O)=O)c1ccccc12` (stereo not drawn) [Co. No. 14, 1′-[[5-chloro-1-(3-methylsulfonylpropyl)indol-2-yl]methyl]-N-(2-hydroxy-1-methyl-ethyl)-2′-oxo-spiro[azetidine-3,3′-indoline]-1-carboxamide], in that order: 98200 and 575 pM.
In the same order, the values of `CN(C)CCN(C)C(=O)N1CC2(C1)C(=O)N(Cc1cc3cc(Cl)ccc3n1CCCS(C)(=O)=O)c1ccccc12` [Co. No. 15, 1′-[[5-chloro-1-(3-methylsulfonylpropyl)indol-2-yl]methyl]-N-[2-(dimethylamino)ethyl]-N-methyl-2′-oxo-spiro[azetidine-3,3′-indoline]-1-carboxamide] are 2570 and 7590 pM.
On to `CS(=O)(=O)CCCn1c(CN2C(=O)C3(CN(C(=O)NCCN4CCOCC4)C3)c3ccccc32)cc2cc(Cl)ccc21` [Co. No. 16, 1′-[[5-chloro-1-(3-methylsulfonylpropyl)indol-2-yl]methyl]-N-(2-morpholinoethyl)-2′-oxo-spiro[azetidine-3,3′-indoline]-1-carboxamide], for which, in data set [1], the selectivity ratio at 3 days came out at 159000. Further, in the data set on rgRSV224 virus, the EC50 is 339 pM.
For `CN(C)CCNC(=O)N1CC2(C1)C(=O)N(Cc1cc3cc(Cl)ccc3n1CCCS(C)(=O)=O)c1ccccc12` [Co. No. 17, 1′-[[5-chloro-1-(3-methylsulfonylpropyl)indol-2-yl]methyl]-N-[2-(dimethylamino)ethyl]-2′-oxo-spiro[azetidine-3,3′-indoline]-1-carboxamide], in that order: 39300 and 1260 pM.
In the same order, the values of `CC(C)NC(=O)N1CC2(C1)C(=O)N(Cc1nc3cc(Cl)ccc3n1CCCS(C)(=O)=O)c1ccccc12` [Co. No. 18, 1′-[[5-chloro-1-(3-methylsulfonylpropyl)benzimidazol-2-yl]methyl]-N-isopropyl-2′-oxo-spiro[azetidine-3,3′-indoline]-1-carboxamide] are greater than 4.93e+06 and 20.4 pM.
With `CC(C)NC(=O)N1CC2(C1)C(=O)N(Cc1nc3cc(Cl)ccc3n1CCCC#N)c1ccccc12` [Co. No. 19, 1′-[[5-chloro-1-(3-cyanopropyl)benzimidazol-2-yl]methyl]-N-isopropyl-2′-oxo-spiro[azetidine-3,3′-indoline]-1-carboxamide], in data set [1], the selectivity ratio at 3 days was greater than 1.11e+06. The EC50 with rgRSV224 virus is 91.2 pM.
`CC(C)NC(=O)N1CC2(C1)C(=O)N(Cc1nc3nc(Cl)ccc3n1CCCCF)c1ccccc12` [Co. No. 20, 1′-[[5-chloro-1-(4-fluorobutyl)imidazo[4,5-b]pyridin-2-yl]methyl]-N-isopropyl-2′-oxo-spiro[azetidine-3,3′-indoline]-1-carboxamide]: the selectivity ratio at 3 days in data set [1] is greater than 80200. Moreover, the EC50 in the data set on rgRSV224 virus was 1260 pM.
For `O=C(NC1CC(O)C1)N1CC2(C1)C(=O)N(Cc1nc3nc(Cl)ccc3n1CCCCF)c1ccccc12` (stereo not drawn) [Co. No. 21, 1′-[[5-chloro-1-(4-fluorobutyl)imidazo[4,5-b]pyridin-2-yl]methyl]-N-(3-hydroxycyclobutyl)-2′-oxo-spiro[azetidine-3,3′-indoline]-1-carboxamide], in that order: greater than 71400 and 1410 pM.
On to `O=C(NC1CCOCC1)N1CC2(C1)C(=O)N(Cc1nc3nc(Cl)ccc3n1CCCC(F)(F)F)c1ccccc12` [Co. No. 23, 1′-[[5-chloro-1-(4,4,4-trifluorobutyl)imidazo[4,5-b]pyridin-2-yl]methyl]-2′-oxo-N-tetrahydropyran-4-yl-spiro[azetidine-3,3′-indoline]-1-carboxamide], for which the selectivity ratio at 3 days in data set [1] is greater than 61800. Also, the EC50 in the data set with rgRSV224 virus is 1620 pM.
In the same order, the values of `O=C(NC1CC(O)C1)N1CC2(C1)C(=O)N(Cc1nc3nc(Cl)ccc3n1CCCC(F)(F)F)c1ccccc12` (stereo not drawn) [Co. No. 24, 1′[[5-chloro-1-(4,4,4-trifluorobutyl)imidazo[4,5-b]pyridin-2-yl]methyl]-N-(3-hydroxycyclobutyl)-2′-oxo-spiro[azetidine-3,3′-indoline]-1-carboxamide] are greater than 75400 and 1320 pM.
`CNC(=O)N1CCC2(CC1)C(=O)N(Cc1cc3cc(Cl)ccc3n1CCCC#N)c1cnccc12` [Co. No. 25, 1′-[[5-chloro-1-(3-cyanopropyl)indol-2-yl]methyl]-N-methyl-2′-oxo-spiro[piperidine-4,3′-pyrrolo[2,3-c]pyridine]-1-carboxamide]: the selectivity ratio at 3 days in data set [1] is greater than 565000. Besides, the EC50 in the data set with rgRSV224 virus is 178 pM.
